# Test results published in patent US8263344B2, “Compounds regulating calreticulin, KDEL receptor and/or Erp-57 cell surface exposure and uses thereof to evaluate the efficiency of a cancer treatment” (Institut Gustave Roussy, priority 2006, dated 2012).
# How the values were obtained:
# CT26 tumour cells = experiment: Anti-tumour vaccination with treated (dying) CT26 cells and challenge with live tumour cells; format: in vivo, BALB/c mice; conditions: dying CT26 cells injected into one flank, rechallenge with live tumour cells in opposite flank 8 days later
# CT26 cells = experiment: Phagocytosis of tumour cells by dendritic cells (DC); format: cell-based, BALB/c mice; conditions: within a few hours after treatment
# Protocol: BM cells were flushed from the tibias and femurs of BALB/c mice with culture medium composed of RPMI 1640 medium (Invitrogen Life Technologies) supplemented with 10% heat-inactivated FBS (Invitrogen), sodium pyruvate, 50 μM 2-ME (Sigma), 10 mM HEPES (pH 7.4), and penicillin/streptomycin (Invitrogen). After one centrifugation, BM cells were resuspended in Tris-ammonium chloride for 2 min to lyse RBC. After one more centrifugation, BM cells (1×10^6 cells/ml) were cultured in medium supplemented with 100 ng/ml recombinant mouse FLT3 ligand (R&D systems) in 6-well plates (Costar Corning). After 7 days, the non-adherent and loosely adherent cells were harvested with Versene, washed and transferred in 12-well plates (1.5×10^6 cells/plate) for cocultures with tumour cells.
# In 12-well plates, […] adherent CT26 cells were labelled with Celltracker Green (Calbiochem) and then incubated with drugs. In some experiments viable CT26 were coated with 2 μg/10^6 cells of chicken anti-CRT antibody (ABR affinity bioreagents) or an isotype control for 30 min prior to washing and feeding to dendritic cells Cs. Alternatively CT26 cells were coated with 2 μg/10^6 cells of rCRT on ice for 30 min and washed twice prior to addition to dendritic cells. Cells were then harvested, washed three times with medium supplemented with FBS and cocultured with immature DC for 2 hours at a ratio of 1:1 and 1:5. At the end of the incubation, cells were harvested with versene, pooled with non-adherent cells present in the supernatant, washed and stained with CD11c-FITC antibody. Phagocytosis was assessed by FACS analysis of double positive cells. Phagocytic indexes refer to the ratio between values obtained at 4° C. and values obtained at 37° C. of co-incubation between DC and tumour cells.
# CT26 tumours [1] = experiment: Single intratumoural injection into established CT26 tumours, immunocompetent mice; format: in vivo, BALB/c mice; conditions: established 14-day-old CT26 tumours
# CT26 tumours [2] = experiment: Single intratumoural injection into established CT26 tumours, athymic mice; design: species or system nu/nu Balb/c mice; conditions: mouse, in vivo
# HeLa cells = experiment: Surface ERp57 detection (immunofluorescence, flow cytometry); format: cell-based, human; conditions: 2 h; MTX 1 μM, Tau 150 nM
# Protocol: HeLa cells were cultured on cover slips (in RPM1160 medium supplemented with 10% fetal calf serum, L-glutamine and antibiotics), in the absence (control) or in the presence of 1 μM mitoxantrone (MTX, Sigma) for 2 h. For the intracellular stainings, HeLa cells were fixed and permeabilised by means of Cytofix/Cytoperm kit from Becton Dickinson according to the manufacturer's instructions. For the surface stainings, HeLa cells were fixed with paraformadehyde (4% w/v) on ice for 5 min. […] Nuclei were labelled with DAPI mounting medium (Vectashield). Fluorescence microscopy was analyzed with a Leica IRE2 equipped with a DC300F camera. Size bars represent 10 μm.
# HeLa cells were treated with or without mitoxantrone (MTX, 1 μM) or tautomycin (Tau, 150 nM, Sigma) for 2 h. Cells were washed twice with PBS and fixed in PFA (4% w/v) for 5 min. HeLa cells were stained with an antibody against Erp57 (pAb from Abcam, ab10827) at 1:200 dilution or isotype control, in staining buffer (PBS, 1% FCS) for 30 min on ice, followed by washing. An anti-rabbit Alexa fluor 488 immunoglobulin conjugate (Molecular Probes-Invitrogen) diluted at 1:500 was added for an additional 30 min on ice before washing and analysed by flow cytometry (FACScan, Becton Dickinson). […] The CellQuest software was used to analyse the mean fluorescence intensity (MFI) and the percentage of ERp57 positive cells.
# FIG. 12: ERp57 exposure depends on the activation of a caspase. • (A) HeLa cells were treated with MTX (1 μM) for 2 h in the presence or absence of 50 μM zVAD.fmk. The MFI of surface Erp57 positive cells was analysed as described in FIG. 9. • (B) HCT116 parental cells stably transfected with either a vector encoding p35 (Stennicke et al., 2002; Date et al., 2003) or with a PCMV vector (Sigma) as control, were treated with MTX (1 μM) for 2 h. The MFI of surface Erp57 positive cells was analysed as described in FIG. 9. • (C) HCT116 cells were pre-incubated in the presence of 50 μM biotinylated VAD.fmk (Calbiochem) for 2 h. […]
# CT26 cytoplasts = experiment: CRT exposure on enucleated cells (cytoplasts); format: cell-based, murine
# Protocol: FIG. 5A: CRT exposure after anthracyclin treatment in the absence of a nucleus. Intact cells or enucleated cells (cytoplasts) were treated for 2 hours with mitoxantrone, followed by immunofluorescence detection of CRT exposure. Inserts show the effective removal of Hoechst 33342-stainable nuclei from the cytoplasts.
# Trypsinized CT26 cells were enucleated as described in the publication of Andreau, K. et al. Contagious apoptosis facilitated by the HIV-1 envelope. Fusion-induced cell-to-cell transmission of a lethal signal. J. Cell Sci. 117, 5643-53 (2004). Briefly, cells were treated in 2 ml of complete RPMI medium containing cytochalasin B (10 μg/ml; Sigma) and DNase I (80 U/ml; Sigma). Cell suspension was adjusted to a final concentration of 5×10^6/ml and incubated at 37° C. for 45 minutes before being layered onto a previously prepared discontinuous Ficoll (Pharmacia) density gradient (3 ml of 100%, in 1 ml of 90% and 3 ml of 55% Ficoll Paque layer containing 5 μg/ml cytochalasin B and 40 U/ml DNase I; gradients were prepared in ultracentrifuge tubes and pre-equilibrated at 37° C. in a CO2 incubator overnight). […] Then the cell surface CRT was detected (see materials and methods) and the viability was determined by with propidium iodine staining (2 μg/ml, Sigma) for 5 min followed by cytofluorometric analysis. […] Phagocytosis was assessed by FACS analysis of double positive cells.
# MCA205, B16F10, J558 = experiment: CRT exposure on a panel of murine tumour cell lines; format: cell-based
# HeLa, A549, HCT116 = experiment: CRT exposure on a panel of human tumour cell lines; format: cell-based
compound,measurement,setting,value
O=C1c2c(O)ccc(O)c2C(=O)c2c(NCCNCCO)ccc(NCCNCCO)c21 [mitoxantrone],immunogenic apoptosis / immunogenic cell death (protection against tumour growth),CT26 tumour cells,elicited immunogenic cell death
same,phagocytosis of treated tumour cells by DC,CT26 cells,acquired the property to be phagocytosed by DC
same,"therapeutic effect of intratumoural injection, single agent, immunocompetent mice",CT26 tumours [1],permanent regression in some but not all cases
same,"therapeutic effect of intratumoural injection, single agent, nu/nu mice",CT26 tumours [2],no cure
same,surface exposure of ERp57,HeLa cells,appear on the surface
same,time to CRT exposure in enucleated cells (cytoplasts),CT26 cytoplasts,≤ 1 h
same,"CRT exposure, murine tumour cell lines","MCA205, B16F10, J558",induced CRT exposure
same,"CRT exposure, human tumour cell lines","HeLa, A549, HCT116",induced CRT exposure
